Measurements published in PMC5034043 (The Journal of Biological Chemistry, 2016).
Read-outs that look alike come from different tables or passages of the source.

Tested on: T1, synaptosomal proteome
T1 construct: from tissue; host or cells: brain synaptosomes of male C57/B6 mice
Format: binding, mouse
Experimental: Synaptosomes were resuspended to 1 mg of protein/ml in HEPES buffer medium (in mM: 140 NaCl, 5 KCl, 5 NaHCO3, 1.2 NaH2PO4, 1 MgCl2, 10 glucose, and 10 HEPES (pH 7.4)). […] The samples were allowed to equilibrate for 5 min before being transferred to a parafilm-sealed 1-mm path length quartz cuvette. The sample was then irradiated for 20 min at a peak bandwidth of 350 nm (Rayonet RPR-3500 lamp) ∼6 cm from the light source. Non-irradiated samples were left in the dark at ambient temperature (22–25 °C) for 20 min. All remaining procedures were conducted with restricted light exposure.
To 750 μg of photolabeled or control synaptosome samples, 40 μl of 10% SDS and 2 μl of 5 mM DTT in water were added. Samples were then vortexed, heated for 10 min at 65 °C, and then briefly cooled. Final concentrations of 150 μM azide-biotin (Click Chemistry Tools), 2 mM tris(3-hydroxypropyltriazolylmethyl)amine (Sigma), 1 mM ascorbic acid (Sigma), and 1 mM CuSO4·5H2O (Sigma) were added to each sample and vortexed vigorously. The samples were left in the dark at ambient temperature (22–25 °C) for 1 h with mild agitation. Directly to each sample 4× volume chilled methanol, 1.5× chilled chloroform, and 3× chilled double distilled H2O were added. Samples were vortexed vigorously and centrifuged at 1,400 × g for 30 min at 4 °C. Both liquid layers were carefully removed, and the protein pellet was washed with 2 ml of 1:1 (v/v) chilled methanol/chloroform. Samples were centrifuged at 3,500 × g for 30 min at 4 °C. Protein pellets were briefly air-dried before further processing.
750 μg of biotin-conjugated protein sample was resuspended in 500 μl of 25 mM NH4HCO3 and 6 M urea in water. Next, 150 μl of 5% Triton X-100 in water, 50 μl of 10% SDS in water, and 1.5 μl of 0.5 M DTT were added. The samples were heated for 15 min at 65 °C. After briefly cooling, 14 μl of 0.5 M iodoacetamide in water was added, and the sample was left in the dark for 45 min. […] The supernatant was diluted to 4 ml with PBS, and 2 ml of PBS containing 100 μl of 50% streptavidin-agarose resin (Thermo Scientific) was added. Biotinylated proteins within the sample were captured over resin overnight at 4 °C with mild agitation. The resin was first washed with 6 ml of 1% SDS in PBS, and then 7 ml of 0.1 M urea in PBS followed by 10 ml of PBS. The resin underwent a final wash with 0.9 ml of 50 mM Tris-HCl and 1 mM CaCl2 in water (pH 8.0) and then resuspended in 200 μl of 50 mM Tris-HCl, 1 mM CaCl2 in water (pH 8.0), and 2 μg of porcine sequencing grade trypsin (Promega). Samples were digested overnight at 37 °C. Samples were then centrifuged at 2,000 × g for 4 min, and digest supernatant was decanted. Beads were washed in 100 μl of PBS centrifuged at 5,200 × g for 5 min, and the wash was combined with the digest supernatant. To the combined sample, trifluoroacetic acid (TFA) was added to 0.4% (v/v) or until pH <2. The sample was desalted with Oasis C18 10-mg columns (Waters) as described previously ([66]). The eluted sample was dried by speed vac and resuspended in 0.1 M HEPES buffer (pH 8.5). […] Appropriate corresponding TMTsixplex^TM-labeled samples were pooled and dried by speed vac. The combined samples were resuspended in 0.5% acetic acid in water and pH-corrected with acetic acid until pH was <2. 40 μg of protein was desalted with C18 stage tips prepared in-house and dried by speed vac.
Samples were resuspended in 10 mM KH2PO4 (pH 2.6), 30% acetonitrile (v/v) in water, and fractionated by off-line strong cation exchange chromatography prior to mass spectrometry (MS) analysis similar to as reported previously ([66]). The full synaptosome proteome control was prepared similarly without TMTsixplex^TM labeling.
All TMT samples were analyzed with three-stage mass spectrometry (MS3) TMTsixplex^TM quantification workflow as described previously ([34]).

[1] = protein A2AGI3 Neuroligin-3 (Nlgn3)
[2] = protein A2AWI7 Endophilin-B2 (Sh3glb2)
[3] = protein D3Z5T2 Armadillo repeat-containing protein 10 (Armc10)
[4] = protein E9Q3V6 Septin-2 (Sept2)
[5] = protein F7C846 Metaxin-1 (Mtx1)
[6] = protein F8WGD9 1-acyl-sn-glycerol-3-phosphate acyltransferase epsilon (Agpat5)
[7] = protein G3UYZ1 Immunoglobulin superfamily member 8 (Igsf8)
[8] = protein G5E829 Plasma membrane calcium-transporting ATPase 1 (Atp2b1)
[9] = protein O09111 NADH dehydrogenase [ubiquinone] 1 beta subcomplex subunit 11, mitochondrial (Ndufb11)
[10] = protein O35114 Lysosome membrane protein 2 (Scarb2)
[11] = protein O35526 Syntaxin-1A (Stx1a)
[12] = protein O35874 Neutral amino acid transporter A (Slc1a4)

Q: What does the source list for `C#CCOCc1ccc(C2(C(F)(F)F)N=N2)cc1O` [AziPm-click (1), 2-((prop-2-yn-1-yloxy)methyl)-5-(3-(trifluoromethyl)-3H-diazirin-3-yl)phenol]?
A: Log2( Mean 'UV/ No UV') (B1AU25 Aifm1): 4.01; TMT Ratio Mean 'UV/ No UV' (B1AU25 Aifm1): 16.13; Log2( Mean 'UV/ No UV') (O35633-2 Slc32a1): 4.34; Log2( Mean 'UV/ No UV') (O35678 Mgll): 4.63; TMT Ratio Mean 'UV/ No UV' (O35678 Mgll): 24.71; Log2( Mean 'UV/ No UV') (P07724 Alb): 4.39; TMT Ratio Mean 'UV/ No UV' (P07724 Alb): 20.95; Log2( Mean 'UV/ No UV') (P08226 Apoe): 3.80; TMT Ratio Mean 'UV/ No UV' (P08226 Apoe): 13.94; Log2( Mean 'UV/ No UV') (P17665 Cox7c): 4.31; TMT Ratio Mean 'UV/ No UV' (P17665 Cox7c): 19.82; Log2( Mean 'UV/ No UV') (P19157 Gstp1): 3.61; TMT Ratio Mean 'UV/ No UV' (P19157 Gstp1): 12.21; Log2( Mean 'UV/ No UV') (P23242 Gja1): 3.58; TMT Ratio Mean 'UV/ No UV' (P23242 Gja1): 11.95; Log2( Mean 'UV/ No UV') (P31648 Slc6a1): 4.60; TMT Ratio Mean 'UV/ No UV' (P31648 Slc6a1): 24.21; Log2( Mean 'UV/ No UV') (P35279 Rab6a): 3.67; TMT Ratio Mean 'UV/ No UV' (P35279 Rab6a): 12.71; Log2( Mean 'UV/ No UV') (P40237 Cd82): 3.95; TMT Ratio Mean 'UV/ No UV' (P40237 Cd82): 15.49; Log2( Mean 'UV/ No UV') (P42125 Eci1): 4.01; TMT Ratio Mean 'UV/ No UV' (P42125 Eci1): 16.13; Log2( Mean 'UV/ No UV') (P51150 Rab7a): 3.54; TMT Ratio Mean 'UV/ No UV' (P51150 Rab7a): 11.65; Log2( Mean 'UV/ No UV') (P60879-2 Snap25): 4.57; Log2( Mean 'UV/ No UV') (P61294 Rab6b): 3.78; TMT Ratio Mean 'UV/ No UV' (P61294 Rab6b): 13.75; Log2( Mean 'UV/ No UV') (P61620 Sec61a1): 4.06; TMT Ratio Mean 'UV/ No UV' (P61620 Sec61a1): 16.63; Log2( Mean 'UV/ No UV') (P63011 Rab3a): 3.83; TMT Ratio Mean 'UV/ No UV' (P63011 Rab3a): 14.19; Log2( Mean 'UV/ No UV') (P63037 Dnaja1): 3.64; TMT Ratio Mean 'UV/ No UV' (P63037 Dnaja1): 12.46; Log2( Mean 'UV/ No UV') (P63213 Gng2): 3.65; TMT Ratio Mean 'UV/ No UV' (P63213 Gng2): 12.51; Log2( Mean 'UV/ No UV') (Q5ICG5 Acsl6): 3.88; TMT Ratio Mean 'UV/ No UV' (Q5ICG5 Acsl6): 14.71; Log2( Mean 'UV/ No UV') (Q5SW88 Rab1): 3.58; TMT Ratio Mean 'UV/ No UV' (Q5SW88 Rab1): 11.95; Log2( Mean 'UV/ No UV') (Q8BXV2 Bri3bp): 3.89; TMT Ratio Mean 'UV/ No UV' (Q8BXV2 Bri3bp): 14.84; Log2( Mean 'UV/ No UV') (Q8C3X2 Ccdc90b): 4.00; TMT Ratio Mean 'UV/ No UV' (Q8C3X2 Ccdc90b): 16.04; Log2( Mean 'UV/ No UV') (Q8K4X7 Agpat4): 4.25; TMT Ratio Mean 'UV/ No UV' (Q8K4X7 Agpat4): 18.96; Log2( Mean 'UV/ No UV') (Q8R5J9 Arl6ip5): 4.56; TMT Ratio Mean 'UV/ No UV' (Q8R5J9 Arl6ip5): 23.65; Log2( Mean 'UV/ No UV') (Q9CXJ4 Abcb8): 3.93; TMT Ratio Mean 'UV/ No UV' (Q9CXJ4 Abcb8): 15.28; Log2( Mean 'UV/ No UV') (Q9CZS1 Aldh1b1): 4.40; TMT Ratio Mean 'UV/ No UV' (Q9CZS1 Aldh1b1): 21.11; Log2( Mean 'UV/ No UV') (Q9CZT8 Rab3b): 3.73; TMT Ratio Mean 'UV/ No UV' (Q9CZT8 Rab3b): 13.26; Log2( Mean 'UV/ No UV') (Q9D5T0 Atad1): 3.65; TMT Ratio Mean 'UV/ No UV' (Q9D5T0 Atad1): 12.57; Log2( Mean 'UV/ No UV') (Q9EP69 Sacm1l): 4.04; TMT Ratio Mean 'UV/ No UV' (Q9EP69 Sacm1l): 16.45; Log2( Mean 'UV/ No UV') (Q9ER00 Stx12): 3.85; TMT Ratio Mean 'UV/ No UV' (Q9ER00 Stx12): 14.40; Log2( Mean 'UV/ No UV') (Q9Z2I0 Letm1): 4.32; TMT Ratio Mean 'UV/ No UV' (Q9Z2I0 Letm1): 19.93; Log2( Mean 'UV/ No UV') (Q80ZW2 Them6): 4.50; TMT Ratio Mean 'UV/ No UV' (Q80ZW2 Them6): 22.62; Log2( Mean 'UV/ No UV') (Q99JY8 Ppap2b): 4.16; TMT Ratio Mean 'UV/ No UV' (Q99JY8 Ppap2b): 17.86; Log2( Mean 'UV/ No UV') (Q00915 Rbp1): 4.46; TMT Ratio Mean 'UV/ No UV' (Q00915 Rbp1): 22.07; Log2( Mean 'UV/ No UV') (Q60771 Cldn11): 4.48; TMT Ratio Mean 'UV/ No UV' (Q60771 Cldn11): 22.33; Log2( Mean 'UV/ No UV') [1]: 3.89; TMT Ratio Mean 'UV/ No UV' [1]: 14.80; Log2( Mean 'UV/ No UV') [2]: 3.55; TMT Ratio Mean 'UV/ No UV' [2]: 11.67; Log2( Mean 'UV/ No UV') [3]: 3.94; TMT Ratio Mean 'UV/ No UV' [3]: 15.34; Log2( Mean 'UV/ No UV') [4]: 4.02; TMT Ratio Mean 'UV/ No UV' [4]: 16.25; Log2( Mean 'UV/ No UV') [5]: 4.31; TMT Ratio Mean 'UV/ No UV' [5]: 19.87; Log2( Mean 'UV/ No UV') [6]: 4.62; TMT Ratio Mean 'UV/ No UV' [6]: 24.62; Log2( Mean 'UV/ No UV') [7]: 3.89; TMT Ratio Mean 'UV/ No UV' [7]: 14.81; Log2( Mean 'UV/ No UV') [8]: 3.59; TMT Ratio Mean 'UV/ No UV' [8]: 12.05; Log2( Mean 'UV/ No UV') [9]: 3.68; TMT Ratio Mean 'UV/ No UV' [9]: 12.78; Log2( Mean 'UV/ No UV') [10]: 4.27; TMT Ratio Mean 'UV/ No UV' [10]: 19.35; Log2( Mean 'UV/ No UV') [11]: 3.50; TMT Ratio Mean 'UV/ No UV' [11]: 11.31; Log2( Mean 'UV/ No UV') [12]: 4.57; TMT Ratio Mean 'UV/ No UV' [12]: 23.78; Log2( Mean 'UV/ No UV') (protein O35963 Ras-related protein Rab-33B (Rab33b)): 4.02
